The results in this text go back to paper PMC11374718, “Unlocking opioid neuropeptide dynamics with genetically encoded biosensors” (Nature Neuroscience, 2024).

Assay [1] concerns κLight1.3a. The assay is described as follows: in vivo fiber photometry of κLight1.3a in NAcSh, agonist/antagonist drug injection. Also noted: species or system mouse. Particulars: κOR-Cre mice NAcSh; aticaprant 3 mg per kg + U50,488 10 mg per kg i.p.; 0–50 min; n = 6. The method, then:
To detect dynorphin signaling at κOR-expressing neurons, we injected κOR-Cre mice with AAV5-CAG-DIO-κLight1.3a and implanted optical fibers in the NAcSh. A subset of mice was also injected with the red-shifted opsin ChRimson (AAV5-DIO-EF1a-ChRimson-tdTomato) in the BLA (Fig. 5a–c and Extended Data Fig. 5a); ChRimson-lacking mice served as a negative control to determine if optical stimulation produced artifactual dynamics in κLight1.3a fluorescence. We first examined the response of κLight1.3a to the agonist U50,488 in these mice (Fig. 5d).
Mice were pretreated with either vehicle (17:1:1:1 ratio of saline:dimethylsulfoxide:corn oil:ethanol) or aticaprant (Eli Lilly) at 3 mg per kg body weight […] i.p. for 30 min. […]
Custom MATLAB scripts were developed for analyzing fiber photometry data in the context of mouse behavior. […] After baseline correction, the photometry trace was z-scored relative to the mean and standard deviation of the session. The post-processed fiber photometry signal was analyzed in the context of animal behavior during Pavlovian conditioning and operant task performance. […] Peak, mean and minimum fluorescence was determined during predetermined time windows for the injection period (0–5 min), reward period (5–20 s), release period (0–20 s) or artifact period (0–20 s) subtracted from peak, mean or minimum fluorescence values in a baseline window (−5 to 0 s). […]

Assay [2] relates to κLight1.3a. Kind of assay: in vivo BLA terminal ChRimson stimulation-evoked κLight1.3a activity in NAcSh after drug pretreatment. Also noted: species or system mouse. Particulars: aticaprant 3 mg per kg i.p. pretreatment; normalized to vehicle; 0–20 s; n = 4.

In the case of `Cc1cc(C)cc([C@@H]2CCCN2Cc2ccc(Oc3ccc(C(N)=O)cc3F)cc2)c1` [aticaprant], the “Normalized peak fluorescence of κLight1.3a during injection period” value with κLight1.3a [1] was found to be 0.29 ± 0.07. Further, the “Normalized peak fluorescence of κLight1.3a, ChRimson stimulation-evoked trials” value in the assay with κLight1.3a [2] is 0.63 ± 0.14.
